In brackets after ≈: the same amount, converted by molar mass. Where only a bound is given, the exact number is not on record here.

For this data set the following is noted: buffer; pH 7.4; 200.0 µM.
Consider `O=C(OCc1nc(-c2ccccc2Cl)no1)c1ccco1`, for which the solubility (kinetic) (in general, the concentration staying in solution when a stock, usually in DMSO, is diluted into the medium) turned out to be 19 µg/mL (≈ 62.4 µM).
Next, `CCOC(=O)/C=C/C(=O)OCC(=O)Nc1ccc(Cl)cc1Cl`: 8.8 µg/mL (≈ 25.4 µM).
Consider `O=C(NCCCN1CCCC1=O)C1CCCO1` (stereo not given), for which the solubility (kinetic) came out at 35.2 µg/mL (≈ 146 µM).
Next, `C=CCc1c(C)[nH]c(=O)[nH]c1=O`: more than 24.9 µg/mL.
Turning to `CN1CCc2c(OCc3ccc(F)cc3)cccc2C1=O`, the solubility (kinetic) is 36.8 µg/mL (≈ 129 µM).
The figure for `O=C(Nc1cccc(Cl)c1)C1COc2ccccc2O1` (stereo not given) is 3.1 µg/mL (≈ 10.7 µM).
The molecule `Cc1ccccc1-c1nc2cc(NC(=O)C3CC3)ccc2o1` gave a kinetic solubility of 0.8 µg/mL (≈ 2.74 µM).
Molecule `CC1CN(CC(=O)Nc2nc3ccccc3s2)CC(C)O1` (stereo not given) showed a kinetic solubility of 39 µg/mL (≈ 128 µM).
The figure for `O=C(CN1N=C(c2ccccc2)CCC1=O)NCc1ccccc1` is more than 48.2 µg/mL.
Next, `Cc1ccc(N2CC(C(=O)OCC(=O)c3ccc(F)cc3)CC2=O)cc1` (stereo not given): 23.5 µg/mL (≈ 66.1 µM).
Regarding `Cc1ccc(C(=O)O)cc1NC(=O)Nc1cccc2ccccc12`, the kinetic solubility was more than 48.1 µg/mL.
The figure for `COc1ccc(CCC(=O)NCc2cn3ccccc3n2)cc1` is more than 46.4 µg/mL; for `COc1cccc2c1OCC(C(=O)Nc1nccs1)=C2` it is 18.2 µg/mL (≈ 63.1 µM); for `CCc1ccc(NC(=O)C2(C)Cc3ccccc3C(=O)O2)cc1` (stereo not given) it is more than 46.4 µg/mL.
With `CO/N=C(/COc1ccc(F)cc1)c1ccc(OC)cc1`, the kinetic solubility was less than 0.6 µg/mL.
With `O=C(OCc1cccc([N+](=O)[O-])c1)c1cc2ccccc2oc1=O`, the solubility (kinetic) was less than 0.7 µg/mL.
The figure for `Cc1ccc(OC(C)C(=O)Nc2ccc(F)cc2)c([N+](=O)[O-])n1` (stereo not given) is 39.7 µg/mL (≈ 124 µM); for `Cc1cccnc1NC(=O)c1ccc2c(c1)OCO2` it is more than 38.4 µg/mL.
The figure for `COc1ccc(CCNC(=O)C2CC(=O)N(c3ccc(C)cc3)C2)cc1` (stereo not given) is 2.5 µg/mL (≈ 7.09 µM).
`COc1ccc(C)cc1NC(=S)N1CC(C)OC(C)C1` (stereo not given) yielded a solubility (kinetic) of more than 44.2 µg/mL.
Next, `COc1ccccc1N1CCN(C(=O)c2cc3cc(C)ccc3[nH]2)CC1`: less than 0.2 µg/mL; `Cc1ccc(C(=O)NCc2nc3ccccc3[nH]2)o1`: more than 38.3 µg/mL.
Next, `CN(Cc1ccccc1)c1nc(N)nc(Cl)c1C=O`: 26.4 µg/mL (≈ 95.4 µM); `S=c1[nH]c(-c2ccccc2)cn1-c1ccccc1`: 14.9 µg/mL (≈ 59 µM).
Consider `O=c1[nH]c2ccccc2n1C1=CCNCC1`, for which the solubility (kinetic) was more than 32.3 µg/mL.
`O=C(NCCCNC(=O)c1cnccn1)c1ccc(Br)cc1` came in with a solubility (kinetic) of 52.2 µg/mL (≈ 144 µM).
Next, `O=C(COC(=O)Cn1cnc2ccccc2c1=O)Nc1ccccc1OC(F)F`: 15.8 µg/mL (≈ 39.2 µM); `CCN(CC(=O)Nc1c(F)cccc1F)C(=O)c1cnccn1`: more than 48 µg/mL.
The figure for `CC(C(=O)Nc1ccc(C(F)(F)F)cc1)N(C)CC(=O)N1CCN(Cc2ccccc2)CC1.O=C(O)C(=O)O` (stereo not given) is 52.1 µg/mL; for `COc1ccc(C2NC(=O)NC(C)=C2[N+](=O)[O-])cc1OC` (stereo not given) it is more than 44 µg/mL; for `O=C1Nc2ccc3sc4ccccc4c3c2C1=O` it is 0.6 µg/mL (≈ 2.37 µM).
The figure for `Cc1cc(C)cc(N(C(C)C(=O)N2CCCC2)S(C)(=O)=O)c1` (stereo not given) is more than 48.7 µg/mL.
`CN1C(=O)NC(c2ccccc2Cl)C2=C1CC(C)(C)CC2=O` (stereo not given): the kinetic solubility was more than 47.8 µg/mL.
The figure for `O=C(O)CSCc1nc2cccnc2n1C1CCCCC1` is 42.1 µg/mL (≈ 138 µM); for `COc1ccc2oc(C(=O)NCc3ccco3)c(C)c2c1` it is 31.6 µg/mL (≈ 111 µM).
The figure for `Cc1cccc(COC(=O)C(Cc2ccccc2)NC(N)=O)c1` (stereo not given) is more than 46.9 µg/mL; for `COC(=O)c1ccc(S(=O)(=O)NC(C)(C)C)n1C` it is 40.2 µg/mL (≈ 147 µM); for `Cc1cc(C)c(NC(=O)Nc2ccc3c(c2)OCO3)c(C)c1` it is 0.6 µg/mL (≈ 2.01 µM).
Next, `COCCNC(=O)Cn1cc(C(=O)c2ccco2)c2ccccc21`: more than 49 µg/mL; `Cc1cc(C(=O)N2CCOCC2)c(C)o1`: more than 31.4 µg/mL; `CCCn1c(CCNC(=O)c2ccco2)nc2ccccc21`: 41.7 µg/mL (≈ 140 µM).
`CC1CN(C(=O)COC(=O)Cc2c(Cl)cccc2Cl)CC(C)O1` (stereo not given) had a solubility (kinetic) of more than 54 µg/mL.
In the case of `CC1=C(C(=O)OC2CCCCC2)C(c2ccccc2F)NC(=O)N1` (stereo not given), the kinetic solubility was 0.5 µg/mL (≈ 1.5 µM).
Molecule `Cc1ccc(C(C)C)c(OCCNC(=O)c2ccccc2O)c1` gave a solubility (kinetic) of less than 0.7 µg/mL.
The figure for `Cc1cc(NC(=O)COc2ccc(F)c(Cl)c2)no1` is 4.8 µg/mL (≈ 16.9 µM); for `COc1ccccc1C1CCN(Cc2cccc3ccccc23)CC1` it is less than 0.7 µg/mL.
Next, `CC(C)CNC(=O)CSc1nnc2ccccn12`: more than 39.7 µg/mL; `O=C1Nc2ccc([N+](=O)[O-])cc2C1=Nc1cccc(CO)c1`: more than 44.6 µg/mL; `COc1ccc2[nH]cc(CCNC(C)=O)c2c1`: more than 34.8 µg/mL.
The molecule `CCOC(=O)/C=C1\SCC(=O)N1CC(=O)N1CCOCC1` yielded a solubility (kinetic) of more than 47.2 µg/mL.
Take `CC1=C(C#N)S(=O)(=O)C(C#N)C(c2ccccc2)C1` (stereo not given): the solubility (kinetic) is 30.1 µg/mL (≈ 111 µM).
The figure for `COC(=O)c1ccccc1Nc1ccnc(Cl)n1` is 32.1 µg/mL (≈ 122 µM); for `CN(C)/C=C1\Cc2ccccc2C1=O` it is more than 28.1 µg/mL.
The figure for `O=C(C1=C(O)C(=O)N(Cc2cccnc2)C1c1cccc(Oc2ccccc2)c1)c1ccco1` (stereo not given) is more than 67.9 µg/mL; for `O=C(NCC(F)(F)F)c1ccc(S(=O)(=O)Nc2ccccc2N2CCCC2)cc1` it is 15.4 µg/mL (≈ 36 µM); for `CCOC(=O)c1ccc(NC(=O)c2nc(SC)ncc2Cl)cc1` it is 1 µg/mL (≈ 2.84 µM).
Next, `COc1cc(C(C)=O)ccc1Oc1ncccn1`: more than 36.6 µg/mL; `N#Cc1c(-c2ccc([N+](=O)[O-])cc2)nc2n(c1=O)CCS2`: 14.7 µg/mL (≈ 49 µM).
`NS(=O)(=O)c1ccc(NC(=O)CN2C(=O)c3ccccc3C2=O)cc1` had a kinetic solubility of more than 53.9 µg/mL.
Take `O=S(=O)(Nc1ccc(Cl)cc1)c1cccc2nsnc12`: the kinetic solubility is more than 48.9 µg/mL.
The figure for `COc1ccc(NC(=O)CS(=O)(=O)c2ccccc2Cl)cc1` is 43.8 µg/mL (≈ 129 µM); for `CCOc1cccc(C(=O)NC(=S)Nc2ccc3c(c2)OCCO3)c1` it is 4 µg/mL (≈ 11.2 µM); for `CC(=O)c1sc(-c2ccc(Cl)cc2)cc1N` it is 1.8 µg/mL (≈ 7.15 µM).
The figure for `CCCCCCc1c(C)[nH]c2nc3ccccc3n2c1=O` is less than 0.2 µg/mL.
Molecule `CC(C)CCNC(=O)c1ccc2c(Cl)c3c(nc2c1)CCC3` yielded a solubility (kinetic) of 0.5 µg/mL (≈ 1.58 µM).
`CC(=O)Nc1ccc(S(=O)(=O)NCC(=O)OCC(=O)NCc2ccc3c(c2)OCO3)cc1` showed a kinetic solubility of more than 69.5 µg/mL.
Molecule `CC1CCN(C2=NC(=O)/C(=C/c3ccc(O)cc3)S2)CC1` had a kinetic solubility of 3.8 µg/mL (≈ 12.6 µM).
Next, `CSC1=C(C#N)C(c2sccc2C)CC(=O)N1` (stereo not given): more than 39.7 µg/mL; `Cc1ccc(NC(=O)C2COc3ccccc3O2)c(C)c1` (stereo not given): 33 µg/mL (≈ 116 µM); `OCc1ccccc1N=Cc1cccnc1`: more than 31.8 µg/mL.
Consider `Cc1cccc(C)c1OP(N)(=O)Oc1c(C)cccc1C`, for which the solubility (kinetic) turned out to be 10.8 µg/mL (≈ 35.4 µM).
The figure for `CS(=O)(=O)Nc1ccccc1C(=O)NCCSc1ccccc1` is 51 µg/mL (≈ 146 µM); for `Nc1ccc2c(c1)COC2=O` it is 22.2 µg/mL (≈ 149 µM); for `COCCNC(=S)NC(=O)c1ccc(C(C)(C)C)cc1` it is 14 µg/mL (≈ 47.6 µM).
The figure for `O=C1CSCC(=O)N1c1ncc(C(F)(F)F)cc1Cl` is 42 µg/mL (≈ 135 µM); for `Cc1ccc(NC(=S)NC(=O)c2cncc(Br)c2)cc1Cl` it is 2.4 µg/mL (≈ 6.24 µM); for `Cc1ccccc1CC(=O)NCCN1CCOCC1` it is more than 39.4 µg/mL.
In turn, `Cc1onc(-c2ccccc2)c1C(=O)Nc1ccc(Cl)cn1` displayed a kinetic solubility of 3.1 µg/mL (≈ 9.88 µM).
`NC(=O)C1CCN(C(=S)NC2CC3C=CC2C3)CC1` (stereo not given) yielded a solubility (kinetic) of more than 41.9 µg/mL.
Next, `Fc1ccccc1-c1nc(NC2CCCC2)c2ccccc2n1`: 11.1 µg/mL (≈ 36.1 µM); `COc1cc(OC)c(C(=S)N2CCCC2)cc1OC`: 38.9 µg/mL (≈ 138 µM); `Cc1cc(C)c(C)c(S(=O)(=O)N[C@@H](C)C(=O)OCC(=O)NC2CCCC(C)C2C)c1C` (stereo not given in full): 27.8 µg/mL (≈ 61.4 µM).
The molecule `O=C(NCc1ccncc1)NC12CC3CC(CC(C3)C1)C2` displayed a solubility (kinetic) of 41.3 µg/mL (≈ 145 µM).
`CN1C(=O)C(O)(CC(=O)/C=C/c2ccco2)c2ccccc21` (stereo not given) showed a solubility (kinetic) of more than 44.6 µg/mL.
Next, `Cc1cc(/C=C2\SC(=S)NC2=O)c(C)n1-c1ccccc1`: 3.3 µg/mL (≈ 10.5 µM).
The figure for `CSc1nc2ccc(Br)cc2[nH]1` is 35.7 µg/mL (≈ 147 µM); for `CC(=O)c1ccc(NC(=S)NCc2ccco2)cc1` it is more than 41.2 µg/mL; for `Cc1ccccc1OCCn1c(=S)[nH]c2ccccc21` it is 0.5 µg/mL (≈ 1.76 µM).
The figure for `CCN(Cc1ccccc1)C(=O)c1oc2ccc(C)cc2c1C` is 3 µg/mL (≈ 9.76 µM); for `Cn1c(Nc2ccc(F)cc2)nc2ccccc21` it is 28 µg/mL (≈ 116 µM); for `CC(=O)N1CCN(C(=S)Nc2ccc(SC(F)F)cc2)CC1` it is more than 51.8 µg/mL.
Consider `COc1ccc(NC(=O)c2cc(C)nc3ccccc23)c(OC)c1`, for which the solubility (kinetic) is more than 48.4 µg/mL.
Next, `O=C(NCc1cccc(Cl)c1)c1ccc2c(c1)OCCO2`: 3.2 µg/mL (≈ 10.5 µM).
Next, `Cc1cccc(C(=O)NCCCNC(=O)c2ccccn2)c1`: more than 44.6 µg/mL; `CNc1nc(Cl)nc(Nc2ccccc2)n1`: 2 µg/mL (≈ 8.49 µM); `CC(=O)Nc1ccc(C(=O)OCC(=O)Nc2ccc(N3CCOCC3)cc2)cc1`: 7 µg/mL (≈ 17.6 µM).
`COc1ccc(N2CCN(CC(=O)Nc3ccc(C)cc3)CC2)cc1` displayed a solubility (kinetic) of 46.8 µg/mL (≈ 138 µM).
Next, `Cc1cc(C)cc(-n2c(C)nc3cc(C(=O)O)ccc32)c1`: 35 µg/mL (≈ 125 µM); `Cc1ccccc1NC(=O)CCCC(=O)c1ccccc1`: 21.9 µg/mL (≈ 77.8 µM); `Cc1cccc(Nc2c([N+](=O)[O-])ccc3nonc23)c1C`: less than 0.1 µg/mL.
Molecule `Cc1cc(C)c2c(=O)c(/C=C3\NC(=S)NC3=O)coc2c1` gave a kinetic solubility of 0.8 µg/mL (≈ 2.66 µM).
As for `CN1CCCN(C(=O)CSc2ccccc2)CC1`, the kinetic solubility came to 39.3 µg/mL (≈ 149 µM).
On to `CN(CC(=O)NC(=O)Nc1ccccc1F)Cc1ccccc1`, for which the solubility (kinetic) turned out to be 4.7 µg/mL (≈ 14.9 µM). This solubility kinetic lies about 8.4-fold lower than the previous one.
With `C[C@H](NC(=O)c1cccc([N+](=O)[O-])c1)C(=O)OCC(=O)c1ccccc1Br`, the kinetic solubility is more than 65.3 µg/mL.
Next, `Cc1nc2ccccc2nc1OCC(=O)Nc1ccc(F)cc1`: 33 µg/mL (≈ 106 µM).
